Results: patent US20250034136A1 (Nimbus Wadjet, Inc., priority 2023, published 2025)

Legend:
[1] = biological target: WRN (BV08), human Werner helicase (Uniprot Q14191, amino acids 517-1235 with L1074F point mutation) (Homo sapiens (Human), UniProt Q14191, L1074F); assay: WRN (BV08) ADP-Glo assay; type: biochemical; details: class symbols A-E, read-out: ADP-Glo_hWRN_IC50
[2] = system: p21 induction in HCT116 cells; assay: p21 induction in HCT116 cells; type: cell-based; details: Homo sapiens, HCT-116, 24 h, HCT116 cells, 24 h compound incubation; read-out: P21_EC50
Summary of the method: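 EC50 from non-linear curve fit of p21 immunofluorescence (800 nm), with GAPDH (700 nm) read alongside. DMSO and a reference WRN inhibitor served as low and high controls. Cells (2,000/well) got 11 compound concentrations in duplicate for 24 h at 37 °C.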

Chain of WRN (BV08), human Werner helicase (Uniprot Q14191, amino acids 517-1235 with L1074F point mutation) (Q14191 other isoform, or with tags, fused parts or gaps L1074F (already in the parent)): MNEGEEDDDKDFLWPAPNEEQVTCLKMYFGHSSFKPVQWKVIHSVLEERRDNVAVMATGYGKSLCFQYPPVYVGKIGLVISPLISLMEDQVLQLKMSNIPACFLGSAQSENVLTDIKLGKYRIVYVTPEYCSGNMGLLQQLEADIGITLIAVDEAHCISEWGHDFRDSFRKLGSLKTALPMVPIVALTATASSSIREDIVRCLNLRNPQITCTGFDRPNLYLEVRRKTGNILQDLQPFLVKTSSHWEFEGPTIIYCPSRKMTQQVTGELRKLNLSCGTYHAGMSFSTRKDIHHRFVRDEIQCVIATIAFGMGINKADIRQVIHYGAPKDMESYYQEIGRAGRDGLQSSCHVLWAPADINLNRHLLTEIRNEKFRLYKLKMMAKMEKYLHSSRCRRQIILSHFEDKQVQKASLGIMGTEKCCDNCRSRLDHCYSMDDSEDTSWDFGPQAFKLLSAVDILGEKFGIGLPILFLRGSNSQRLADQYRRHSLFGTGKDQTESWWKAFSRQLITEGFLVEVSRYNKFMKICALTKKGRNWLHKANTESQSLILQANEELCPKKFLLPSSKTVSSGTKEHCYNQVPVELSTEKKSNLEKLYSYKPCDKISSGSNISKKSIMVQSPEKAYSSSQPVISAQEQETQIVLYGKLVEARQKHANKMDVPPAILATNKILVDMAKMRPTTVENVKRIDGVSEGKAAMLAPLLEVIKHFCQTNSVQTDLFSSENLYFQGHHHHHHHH

| Structure (SMILES) | IC50 [1] [nM] | EC50 [2] [nM] |
| --- | --- | --- |
| CCc1c(N2CCN(C(=O)c3ncnc(C)c3O)CC2)c(=O)c2nc(/C=C/C(=O)N(C)C)cnc2n1CC(=O)Nc1ccc(C(F)(F)F)cc1Cl [I-134, (2E)-3-[5-({[2-chloro-4-(trifluoromethyl)phenyl]carbamoyl}methyl)-6-ethyl-7-[4-(5-hydroxy-6-methylpyrimidine-4-carbonyl)piperazin-1-yl]-8-oxo-5H,8H-pyrido[2,3-b]pyrazin-2-yl]-N,N-dimethylprop-2-enamide] | 50 to 100 | > 5000 |
| CCc1c(N2CCN(C(=O)c3ncnc(C)c3O)CC2)c(=O)c2nc(-c3ccnn3C)cnc2n1CC(=O)Nc1ccc(C(F)(F)F)cc1Cl [I-137, N-[2-chloro-4-(trifluoromethyl)phenyl]-2-{6-ethyl-7-[4-(5-hydroxy-6-methylpyrimidine-4-carbonyl)piperazin-1-yl]-2-(1-methyl-1H-pyrazol-5-yl)-8-oxo-5H,8H-pyrido[2,3-b]pyrazin-5-yl}acetamide] | 5 to 50 | > 5000 |
| CCc1c(N2CCN(C(=O)c3ncnc(C)c3O)CC2)c(=O)c2nc(/C=C/C(C)(C)O)cnc2n1CC(=O)Nc1ccc(C(F)(F)F)cc1Cl [I-138, N-[2-chloro-4-(trifluoromethyl)phenyl]-2-{6-ethyl-2-[(1E)-3-hydroxy-3-methylbut-1-en-1-yl]-7-[4-(5-hydroxy-6-methylpyrimidine-4-carbonyl)piperazin-1-yl]-8-oxo-5H,8H-pyrido[2,3-b]pyrazin-5-yl}acetamide] | 5 to 50 | > 5000 |
| CCc1c(N2CCN(C(=O)c3ncnc(C)c3O)CC2)c(=O)c2nc(OC3CCC3)cnc2n1CC(=O)Nc1ccc(C(F)(F)F)cc1Cl [I-141, N-[2-chloro-4-(trifluoromethyl)phenyl]-2-{2-cyclobutoxy-6-ethyl-7-[4-(5-hydroxy-6-methylpyrimidine-4-carbonyl)piperazin-1-yl]-8-oxo-5H,8H-pyrido[2,3-b]pyrazin-5-yl}acetamide] | 5 to 50 | > 5000 |
| CCc1c(N2CCN(C(=O)c3c(C#N)cnc(C)c3O)CC2)c(=O)c2ncc(C)nc2n1CC(=O)Nc1ccc(C(F)(F)F)cc1Cl [I-145, N-[2-chloro-4-(trifluoromethyl)phenyl]-2-{7-[4-(5-cyano-3-hydroxy-2-methylpyridine-4-carbonyl)piperazin-1-yl]-6-ethyl-3-methyl-8-oxo-5H,8H-pyrido[2,3-b]pyrazin-5-yl}acetamide] | 5 to 50 | > 5000 |
| CCc1c(N2CCCN(C(=O)c3ncnc(C)c3O)CC2)c(=O)c2nc(N(C)C)cnc2n1CC(=O)Nc1ccc(C(F)(F)F)cc1Cl [I-147, N-[2-chloro-4-(trifluoromethyl)phenyl]-2-[2-(dimethylamino)-6-ethyl-7-[4-(5-hydroxy-6-methylpyrimidine-4-carbonyl)-1,4-diazepan-1-yl]-8-oxo-5H,8H-pyrido[2,3-b]pyrazin-5-yl]acetamide] | 5 to 50 | > 5000 |
| CCc1c(N2CCN(C(=O)c3ncnc(C)c3O)CC2)c(=O)c2nc(N(C)C)cnc2n1CC(=O)Nc1c(F)cc(C(F)(F)F)cc1F [I-148, N-[2,6-difluoro-4-(trifluoromethyl)phenyl]-2-[2-(dimethylamino)-6-ethyl-7-[4-(5-hydroxy-6-methylpyrimidine-4-carbonyl)piperazin-1-yl]-8-oxo-5H,8H-pyrido[2,3-b]pyrazin-5-yl]acetamide] | 5 to 50 | > 5000 |
| CCc1c(N2CCN(C(=O)c3ncnc(C)c3O)CC2)c(=O)c2nc(N3CCC[C@H]3C)cnc2n1CC(=O)Nc1ccc(C(F)(F)F)cc1Cl [I-150, N-[2-chloro-4-(trifluoromethyl)phenyl]-2-{6-ethyl-7-[4-(5-hydroxy-6-methylpyrimidine-4-carbonyl)piperazin-1-yl]-2-[(2R)-2-methylpyrrolidin-1-yl]-8-oxo-5H,8H-pyrido[2,3-b]pyrazin-5-yl}acetamide] | 5 to 50 | 500 to 2000 |
| CCc1c(N2CCN(C(=O)c3ncnc(C)c3O)CC2)c(=O)c2nc(N3CCCC3C(C)(C)O)cnc2n1CC(=O)Nc1ccc(C(F)(F)F)cc1Cl (stereo not drawn) [I-152, N-[2-chloro-4-(trifluoromethyl)phenyl]-2-{6-ethyl-7-[4-(5-hydroxy-6-methylpyrimidine-4-carbonyl)piperazin-1-yl]-2-[2-(2-hydroxypropan-2-yl)pyrrolidin-1-yl]-8-oxo-5H,8H-pyrido[2,3-b]pyrazin-5-yl}acetamide] | 5 to 50 | > 5000 |
| CCc1c(N2CCN(C(=O)c3ncnc(C)c3O)CC2)c(=O)c2nc(N3CCC[C@H]3C(C)(C)O)cnc2n1CC(=O)Nc1ccc(C(F)(F)F)cc1Cl [I-153, N-[2-chloro-4-(trifluoromethyl)phenyl]-2-{6-ethyl-7-[4-(5-hydroxy-6-methylpyrimidine-4-carbonyl)piperazin-1-yl]-2-[(2S)-2-(2-hydroxypropan-2-yl)pyrrolidin-1-yl]-8-oxo-5H,8H-pyrido[2,3-b]pyrazin-5-yl}acetamide] | 5 to 50 | 2000 to 5000 |

The remaining lines, values ahead:

| IC50 [1] [nM] | EC50 [2] [nM] | Structure (SMILES) |
| --- | --- | --- |
| > 500 | > 5000 | CCc1c(N2CCN(C(=O)c3ncnc(C)c3O)CC2)c(=O)c2nc(OC3COC3)cnc2n1CC(=O)Nc1ccc(C(F)(F)F)cc1Cl [I-140, N-[2-chloro-4-(trifluoromethyl)phenyl]-2-{6-ethyl-7-[4-(5-hydroxy-6-methylpyrimidine-4-carbonyl)piperazin-1-yl]-2-(oxetan-3-yloxy)-8-oxo-5H,8H-pyrido[2,3-b]pyrazin-5-yl}acetamide] |
| ≤ 5 | 500 to 2000 | CCc1c(N2CCN(C(=O)c3ncnc(C)c3O)CC2)c(=O)c2nc(/C=C3\CCC3C)cnc2n1CC(=O)Nc1ccc(C(F)(F)F)cc1Cl (stereo not drawn) [I-142, N-[2-chloro-4-(trifluoromethyl)phenyl]-2-{6-ethyl-7-[4-(5-hydroxy-6-methylpyrimidine-4-carbonyl)piperazin-1-yl]-2-[(2-methylcyclobutylidene)methyl]-8-oxo-5H,8H-pyrido[2,3-b]pyrazin-5-yl}acetamide] |
| ≤ 5 | 500 to 2000 | CCc1c(N2CCN(C(=O)c3ncnc(C)c3O)CC2)c(=O)c2nc(/C=C/C3CCC3)cnc2n1CC(=O)Nc1ccc(C(F)(F)F)cc1Cl [I-144, N-[2-chloro-4-(trifluoromethyl)phenyl]-2-{2-[(1E)-2-cyclobutylethenyl]-6-ethyl-7-[4-(5-hydroxy-6-methylpyrimidine-4-carbonyl)piperazin-1-yl]-8-oxo-5H,8H-pyrido[2,3-b]pyrazin-5-yl}acetamide] |
| 5 to 50 | 500 to 2000 | CCc1c(N2CCN(C(=O)c3ncnc(C)c3O)CC2)c(=O)c2nc(N3CCC[C@@H]3C)cnc2n1CC(=O)Nc1ccc(C(F)(F)F)cc1Cl [I-149, N-[2-chloro-4-(trifluoromethyl)phenyl]-2-{6-ethyl-7-[4-(5-hydroxy-6-methylpyrimidine-4-carbonyl)piperazin-1-yl]-2-[(2S)-2-methylpyrrolidin-1-yl]-8-oxo-5H,8H-pyrido[2,3-b]pyrazin-5-yl}acetamide] |
| 5 to 50 | 2000 to 5000 | CCc1c(N2CCN(C(=O)c3ncnc(C)c3O)CC2)c(=O)c2nc(N3CCC4(CCC4)C3)cnc2n1CC(=O)Nc1ccc(C(F)(F)F)cc1Cl [I-151, 2-(2-{6-azaspiro[3.4]octan-6-yl}-6-ethyl-7-[4-(5-hydroxy-6-methylpyrimidine-4-carbonyl)piperazin-1-yl]-8-oxo-5H,8H-pyrido[2,3-b]pyrazin-5-yl)-N-[2-chloro-4-(trifluoromethyl)phenyl]acetamide] |
